# Measured values from patent publication US11773092B1, “Pyrido[3,4-b]indol-1-one compounds as antibacterial agents” (KING FAISAL UNIVERSITY, priority 2023, dated 2023).
# Like-named read-outs stand apart in the source and are kept apart here.
# Columns and labels:
# [1] = system: Mycobacterium tuberculosis H37Rv strain; test: Anti-tubercular alamar blue microplate MIC; assay type: cell-based; settings: 168 h, M. tuberculosis H37Rv, seven days incubation, read-out: anti-mycobacterial activity (MIC)
# [2] = system: Pseudomonas aeruginosa MTCC 741; test: In vitro antibacterial activity (CLSI M07-A10 dilution MIC); assay type: cell-based; settings: MTCC741
# Source text: (§1) Staphylococcus epidermidis, Bacillus subtilis, Enterococcus faecium, Enterococcus faecium resistant to VRE, and Gram-negative organisms including Klebsiella pneumonia, Escherichia coli, and Pseudomonas aeruginosa.
# [3] = system: Enterococcus faecium ATCC 35667; test: as above; assay type: cell-based; settings: ATCC35667
# Source text: as §1
# [4] = system: Enterococcus faecium ATCC 51559 (VRE resistant); test: as above; assay type: cell-based
# Source text: as §1
# [5] = system: Staphylococcus aureus ATCC BAA-1556 (MERSA resistant); test: as above; assay type: cell-based; settings: ATCCBAA1556
# Source text: as §1
# [6] = system: Bacillus subtilis MTCC 441; test: as above; assay type: cell-based; settings: MTCC441
# Source text: as §1
# [7] = system: Escherichia coli MTCC 443; test: as above; assay type: cell-based
# Source text: as §1
# [8] = system: Staphylococcus aureus ATCC 29213; test: as above; assay type: cell-based; settings: ATCC29213
# Source text: as §1
# [9] = system: Staphylococcus epidermidis; test: as above; assay type: cell-based
# Source text: as §1
# [10] = system: Klebsiella pneumonia MTCC 618; test: as above; assay type: cell-based; settings: Klebsiella pneumoniae, MTCC618
# Source text: as §1
# DNA gyrase from E. coli = biological target: T1, DNA gyrase from E. coli (Escherichia coli, UniProt P0AES4+P0AES6); test: Inhibitory activity on E. coli DNA gyrase (Inspiralis assay); assay type: biochemical
# T1 construct: purchased Inspiralis
# Method: Inhibitory potencies were investigated utilizing the Inspiralis assay on streptavidin-coated 96-well microtiter plates. First, the plates were rehydrated with buffer (20 mM Tris-HCl with pH 7.6, 0.01% w/v BSA, 0.05% v/v Tween 20, 137 mM NaCl) and the biotinylated oligonucleotide was then immobilized. After washing off the unbound oligonucleotide, the enzyme test was performed. […] Reaction solutions were incubated at 37° C. for 30 min. After that, the TF buffer (50 mM NaOAc with pH 5.0, 50 mM NaCl and 50 mM MgCl2) was added to terminate the enzymatic reaction. After additional incubation for 30 min at rt, during which biotinoligonucleotide-plasmid triplex was formed, the unbound plasmid was washed off using TF buffer and SybrGOLD in T10 buffer (10 mM Tris HCl with pH 8.0 and 1 mM EDTA) was added. […] Initial screening was done at 100 or 10 μM concentration of inhibitors. […] GraphPad Prism software was used to calculate the IC50 values. The result is given as the average value of three independent measurements.
# [11] = Escherichia coli MTCC 443 + efflux pump inhibitor PAβN (200 μg/mL)
# T1 sequence (P0AES4 whole entry, one chain of several): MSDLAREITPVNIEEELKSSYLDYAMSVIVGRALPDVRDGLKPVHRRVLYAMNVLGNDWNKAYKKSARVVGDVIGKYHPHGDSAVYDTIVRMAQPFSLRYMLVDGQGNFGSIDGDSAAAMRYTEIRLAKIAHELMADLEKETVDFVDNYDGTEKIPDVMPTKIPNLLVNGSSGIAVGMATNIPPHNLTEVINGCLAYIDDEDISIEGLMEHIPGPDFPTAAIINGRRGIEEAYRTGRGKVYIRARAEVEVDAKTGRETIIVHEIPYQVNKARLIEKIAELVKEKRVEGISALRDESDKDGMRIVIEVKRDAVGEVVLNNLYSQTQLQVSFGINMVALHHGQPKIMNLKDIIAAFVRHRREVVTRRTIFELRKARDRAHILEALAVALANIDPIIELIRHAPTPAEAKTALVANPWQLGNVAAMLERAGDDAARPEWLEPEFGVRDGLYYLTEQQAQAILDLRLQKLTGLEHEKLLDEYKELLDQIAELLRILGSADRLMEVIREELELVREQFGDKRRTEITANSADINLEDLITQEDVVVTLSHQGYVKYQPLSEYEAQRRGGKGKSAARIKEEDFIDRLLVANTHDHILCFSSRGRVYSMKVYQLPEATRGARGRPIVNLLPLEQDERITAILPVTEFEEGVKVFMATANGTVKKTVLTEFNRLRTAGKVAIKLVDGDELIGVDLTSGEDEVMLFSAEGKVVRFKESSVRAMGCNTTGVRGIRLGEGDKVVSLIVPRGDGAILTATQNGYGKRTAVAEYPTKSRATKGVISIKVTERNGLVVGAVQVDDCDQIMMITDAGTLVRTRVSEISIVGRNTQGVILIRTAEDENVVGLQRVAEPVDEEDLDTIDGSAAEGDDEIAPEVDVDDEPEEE
smiles,measurement,setting,value
"CCCCCN(C)Cc1cc(C(=O)O)ccc1-n1ccc2c([nH]c3c(NC)cc(F)cc32)c1=O [Compound 6, 4-(6-fluoro-8-(methylamino)-1-oxo-1,9-dihydro-2H-pyrido[3,4-b]indol-2-yl)-3-((methyl(pentyl)amino)methyl)benzoic acid]",MIC,[1],8 µg/mL
same,MIC,"[2]; Pseudomonas aeruginosa MTCC 741, read-out: MIC",0.75 µg/mL
same,MIC,"[3]; Enterococcus faecium ATCC 35667, read-out: MIC",0.5 µg/mL
same,MIC,"[4]; Enterococcus faecium ATCC 51559 (VRE resistant), read-out: MIC",0.5 µg/mL
same,MIC,"[5]; Staphylococcus aureus ATCC BAA-1556 (MERSA resistant), read-out: MIC",0.75 µg/mL
same,MIC,"[6]; Bacillus subtilis MTCC 441, read-out: MIC",0.5 µg/mL
same,MIC,[7]; [11],0.5 µg/mL
same,MIC,"[7]; MTCC443, Escherichia coli MTCC 443, read-out: MIC",8 µg/mL
same,MIC,"[8]; Staphylococcus aureus ATCC 29213, read-out: MIC",0.75 µg/mL
same,MIC,[9]; read-out: MIC,0.75 µg/mL
same,MIC,"[10]; Klebsiella pneumonia MTCC 618, read-out: MIC",1 µg/mL
same,IC50,DNA gyrase from E. coli,18 nM
"CN[C@H](CC(C)C)C(=O)N[C@H]1C(=O)N[C@@H](CC(N)=O)C(=O)N[C@H]2C(=O)N[C@H]3C(=O)N[C@H](C(=O)N[C@H](C(=O)O)c4cc(O)cc(O)c4-c4cc3ccc4O)[C@H](O)c3ccc(c(Cl)c3)Oc3cc2cc(c3O[C@@H]2O[C@H](CO)[C@@H](O)[C@H](O)[C@H]2O[C@H]2C[C@](C)(N)[C@H](O)[C@H](C)O2)Oc2ccc(cc2Cl)[C@H]1O [Vancomycin, reference compound]",MIC,[2]; Pseudomonas aeruginosa,> 128 µg/mL
same,MIC,[3]; Enterococcus faecium,0.5 µg/mL
same,MIC,[4]; Enterococcus faecium,> 128 µg/mL
same,MIC,[5]; Staphylococcus aureus,1 µg/mL
same,MIC,[6]; Bacillus subtilis,0.5 µg/mL
same,MIC,[7]; [11],>128 µg/mL
same,MIC,"[7]; Escherichia coli, MTCC443",> 128 µg/mL
same,MIC,[8]; Staphylococcus aureus,1 µg/mL
same,MIC,[9],1 µg/mL
same,MIC,[10],> 128 µg/mL
